Experimental data as given in US9333244B2, “Composition and lipid formulation of a hyaluronan-degrading enzyme and the use thereof for treatment of benign prostatic hyperplasia” (Halozyme, Inc., priority 2011, dated 2016).

Legend:
prostate stromal cells = assay: TUNEL assay, apoptosis of stromal cells; type: in vivo, rat
Procedure: In this example, the ability of PEGPH20 to cause apoptosis of stromal cells was analyzed. In situ detection of cell apoptosis by TUNEL assay was based on a reaction for in situ terminal deoxynucleotidyl-transferase (TdT)-mediated biotinylated UTP nick-end labelling (TUNEL). This was essentially performed by using the FragEL DNA (Cat# QIA39-1EA, Calbiochem, Gibbstown, N.J.) according to the manufacturer's directions. In brief, de-paraffinized tissue sections were treated with proteinase K (0.02 mg/mL, Cat#25530, Invitrogen, Carlsbad, Calif.). The slides were then washed in Tris buffered saline (TBS), and endogenous peroxidase was blocked for 5 min in 3% H2O2 diluted in methanol. After washes in TBS, sections were treated with 1×TdT equilibration buffer at room temperature for 30 min and subsequently incubated with TdT labelling reaction mix ([…]) for 1.5 h at 37° C. The slides were rinsed in TBS and mounted using Fluorein-FragEL mounting media, then sealed with nail polish. The number of TUNEL-positive cells was counted on each section at ×200 under a light microscope.
(§1) In this study, 25 mg TE was administered […] to each rat on days 1 and 7. 50 μL of 4700 U/mL (0.18 mg/mL) MVL-PH20F40 and 50 μL MVL-Vehicle were administered intraprostatically on day 7. […]

[1] = tested on: TE-induced rat prostatic hyperplasia; assay: Rat model of TE-induced prostatic hyperplasia: prostate weight; type: in vivo
Procedure: In this example, the ability of testosterone enanthate (TE) to induce prostatic hyperplasia in rat prostate was examined. Briefly, twenty-five (25) 8-week old male Sprague-Dawley rats (Harlan, USA) were dosed by intramuscular injection with 25 mg TE (Lot#80G010A, Abraxis Bioscience, Phoenix, Ariz.) per rat, once a week, on days 0, 7, 14 and 21. Five (5) out of 25 rats were sacrificed pre-TE treatment and 5 of the remaining 20 rats were sacrificed weekly. The ventral lobes of the prostates were harvested for analysis. […] Additionally, the increase in rat prostatic weight was linearly related to sustained TE exposure. The half-life of TE in the rat blood was approximately 10.5 days (Anderson R A, J Clin Endocrinol Metab., (1996) 81(3):896-901).
(§2) In this example, PEGPH20 was administered to TE-induced prostatic hyperplasic rats to evaluate its effect on prostate weight. Testosterone enanthate was administered by intramuscular injection and PEGPH20 (diluted in normal saline) was administered intravenously. Following treatment, the animals were sacrificed and the ventral lobes of the prostates were harvested for analysis. Prostate weight was measured using an electronic scale.
as §2, with “Testosterone” for “In this example, PEGPH20 was administered to TE-induced prostatic hyperplasic rats to evaluate its effect on prostate weight. Testosterone”
as §2, with “example, the time-dependence of treatment of rat BPH with” for “example,”, “evaluated by administering PEGPH20 at various time points.” for “administered to TE-induced prostatic hyperplasic rats to evaluate its effect on prostate weight.”
In this example, the effect of treatment with PEGPH20 was compared to treatment with finasteride using the rat TE-prostatic hyperplasia model. Testosterone enanthate was administered by intramuscular injection, PEGPH20 (diluted in normal saline) was administered intravenously and finasteride was administered intraperitoneally. On day 21 the animals were sacrificed and the ventral lobes of the prostates were harvested for analysis. Prostate weight was measured using an electronic scale.
In this example, the effect of combination therapy with PEGPH20 and finasteride was evaluated. PEGPH20 was administered at a dose of either 0.82 mg/kg (low dose) or 2 mg/kg (high dose). Testosterone enanthate was administered by intramuscular injection, PEGPH20 (diluted in normal saline) was administered intravenously and finasteride was administered intraperitoneally. On day 21 the animals were sacrificed and the ventral lobes of the prostates were harvested for analysis. Prostate weight was measured using an electronic scale.
Percent (%) inhibition was determined according to the formula: ((Control-treated)/Control)×100. […] The prostatic water content of each group was calculated from the wet weight and the dry weight and found to be the same for all groups (˜80%). Therefore, the change in prostate weight cannot be attributed to decreased tissue water.
Testosterone enanthate was administered by intramuscular injection, PEGPH20 was administered intravenously or by intra-prostatic injection and DepoGel vehicle or DepoPH20 were administered by intra-prostatic injection. On day 21 the animals were sacrificed and the ventral lobes of the prostates were harvested for analysis. Prostate weight was measured using an electronic scale.
as §1

[2] = tested on: prostatic stroma and stromal HA; assay: Prostatic histology: stromal HA (biotinylated HABP) and stromal proliferation (H&E); type: in vivo; settings: rat prostate stroma; substance alone (PEGPH20 0.82 mg/kg iv, day 12; TE 25 mg/rat im days 0 and 8, day 18)
Procedure: In this example, the effect of PEGPH20 on prostatic stroma and stromal HA of normal and TE-induced prostatic hyperplasia rats was analyzed by prostatic histology, including hematoxylin and eosin staining and IHC staining. Stromal proliferation was determined by visually comparing the size of the stroma. Testosterone enanthate was administered by intramuscular injection and PEGPH20 (diluted in normal saline) and control were administered intravenously. Following treatment, the animals were sacrificed and the ventral lobes of the prostates were harvested for analysis.
Prostate tissues were fixed in 10% neutral buffered formalin in PBS for 24 hours, dehydrated with gradient ethanol, cleared with xylene, and embedded in paraffin. Paraffin block was cut to 5 μm sections. Tissue sections were dewaxed, rehydrated and processed by standard hematoxylin and eosin (H&E) staining. Histochemical localization of HA was carried out using a biotinylated-HABP probe (bHABP, Cat#400763-1A, Associates of Cape Cod, Mass.). Sections were deparaffinized in xylene, 2×5 min, hydrated in 100% ethanol, for 2×3 min, and in 95% ethanol for 1 min, then rinsed in distilled water, incubated at 37° C. for 20 min in a trypsin solution, and rinsed in PBS for 2×2 min. […]

[3] = cited from earlier work

For CCCCCCC(=O)O[C@H]1CC[C@H]2[C@@H]3CCC4=CC(=O)CC[C@]4(C)[C@H]3CC[C@]12C [TE, testosterone enanthate], the “Apoptotic cells/section Mean ± SD” value (prostate stromal cells; TE 7 d) was 4.6 ± 2.51 cells/section, the “Apoptotic cells/section Mean ± SD” value (prostate stromal cells; TE 18 d) was 1.75 ± 1.71 cells/section and the “increase in prostate size” value ([1]; 25 mg TE per rat im once a week for a month) was roughly 3 fold. The “Prostatic Weight (g) Mean ± SD” value ([1]; TE 25 mg/rat days 0, 7, 14, sacrificed day 21) was 1.54 ± 0.07 g, the “Prostatic Weight Mean ± SD” value ([1]; TE 3 wks (25 mg/rat days 0, 7, 14), day 21) was 1.64 ± 0.12 g and the “increase in prostate weight post TE exposure” value ([1]; day 7, TE 25 mg/rat im) was 18.9%. The “increase in prostate weight post TE exposure” value ([1]; day 18, TE 25 mg/rat im days 0, 7 and 14) was 85.7%, the “Prostatic Weight (g) Mean ± SD” value ([1]; group 1: 3 wk TE (25 mg/rat days 0, 7, 14), day 21) was 1.33 ± 0.23 g and the “Prostatic Weight (g) Mean ± SD” value ([1]; group 1: TE 25 mg/rat days 0, 7, sacrificed day 28) was 1.49 ± 0.47 g. For the same molecule, the “Prostatic Weight (g) Mean ± SD” value ([1]; group 2: TE 25 mg/rat days 0, 7, 14, 21, sacrificed day 28) was 1.76 ± 0.18 g, the “Prostatic Weight (g) Mean ± SD” value ([1]; group 3: TE 25 mg/rat days 0, 7, sacrificed day 21) was 1.57 ± 0.09 g and the “Effect on HA” value [2] was “Increased”. For the same molecule, the “Effect on Stroma” value [2] was “Increased proliferation” and the “half-life of TE in the rat blood” value [3] was “approximately 10.5 days”.

For CC(C)(C)NC(=O)[C@H]1CC[C@H]2[C@@H]3CC[C@H]4NC(=O)C=C[C@]4(C)[C@H]3CC[C@]12C [finasteride, (5α,17β)-N -(1,1-dimethethylethy)-3-oxo-4-azaandrost-1-ene-17-carboxamide], the “inhibition of prostate growth” value ([1]; TE days 0, 7, PEGPH20 0.82 mg/kg iv QOD days 7-20 or finasteride 25 mg/kg ip daily days 7-20, day 21, vs TE alone P<0.01) was “approximately 37%”, the “reduction in prostate size relative to vehicle control” value ([1]; TE days 1 and 7, finasteride 2.5 mg/kg ip daily starting on day 7) was 18.7% and the “% Inhibit” value ([1]; group 4: 3 wk TE, finasteride (25 mg/kg ip daily, 2 wk)) was 25.2%. For the same molecule, the “Prostatic Weight (g) Mean ± SD” value ([1]; group 4: 3 wk TE, finasteride (25 mg/kg ip daily, 2 wk), day 21, P 0.007) was 1.00 ± 0.19 g.
